Assay results from patent US12673921B2, “Substituted fluorine-containing imidazole salt compound, preparation method therefor, pharmaceutical composition thereof and use thereof” (XIAMEN VIVOHEALTHS TECHNOLOGY CO., LTD., priority 2019, dated 2026).

System: AMPK
Test: AMPK activity assay at cell level (western blot of p-AMPKα and p-ACC in MEFs)
Format: cell-based, mouse
Conditions: MEF cells, compound 10 nM, 2 h; multiple of the ratio relative to positive control AICAR (3 mM); band brightness by Image J
Method: The ability of compounds to activate AMPK in mouse embryonic fibroblasts (MEFs) was determined, which could be specifically carried out by detecting the phosphorylation level (p-AMPKα) of threonine at the 172nd position of AMPK and the phosphorylation level (p-ACC) of serine at the 79th position of the susbtrate ACC1/ACC2 of AMPK (FIG. 1 and Table I) by western blot.
The specific method was as follows: • (1) MEFs with loxP insertion sequences or of wild-type were plated in a 6-well plate and cultured in DMEM containing 10% serum. If a gene needed to be knocked out at this time, when the density of the corresponding MEFs with loxP insertion sequences reached about 30%, an adenovirus capable of expressing cre should be added to the culture well followed by further culture for more than 24 h; • (2) When the cell density was close to 90%, the cells were provided with fresh DMEM, at the same time, a compound (final concentration 10 nM) was added to the cells, followed by culture for 2 h, with an equal volume of DMSO as the negative control, and the cells treated with the addition of AICAR (3 mM) as the positive control; • (3) After sucking up the culture solution, the cells were lysed with 200 μL of a cell lysate (its formulation was given below), then the cells were scraped from the culture dish, ultrasonicated, and subjected to low temperature centrifugation at 20000 g for 10 min; • (4) The supernatant and an equal volume of 2*SDS solution (its formulation was given below) were mixed, and subjected to SDS-PAGE in a concentration of 8%, then the protein was transferred to PVDF membrane; each PVDF membrane was blocked with 25 mL of skim milk for 1 h, and then rinsed with TBST buffer (its formulation was given below) 3 times for 10 min each time; • (5) AMPKα subunit primary antibody (Cell Signaling Technology, #2532), primary antibody of phosphothreonine at the 172nd position of AMPK (Cell Signaling Technology, #2535), ACC primary antibody (Cell Signaling Technology, #3662), or primary antibody of phosphoserine at the 79th position of ACC (Cell Signaling Technology, #3661) was diluted in a ratio of 1:1000 with a primary antibody dilution (its formulation was given below), reacted with the PVDF membrane at room temperature for 12 h, and then rinsed 3 times with TBST buffer; • (6) A 1:1000 dilution of HRP-conjugated goat anti-rabbit secondary antibody (Jackson ImmunoResearch, 111-035-003) was added, reacted at room temperature for 1 h, and then rinsed 3 times with TBST buffer; • (7) The PVDF membrane was dried, reacted in an ECL mixture (WesternBright ECL HRP substrate, Advansta) and subjected to exposure with medical X-ray, developed, finally rinsed, dried, and then scanned to obtain data related to AMPK activation.
The formulations of reagents used were: • Cell lysate: 20 mM Tris-base, pH 7.5, 150 mM NaCl, 1 mM EDTA, 1 mM EGTA, 2.5 mM Sodium pyrophosphate, 1 mM β-glycerolphosphate, 1% Triton X-100 (v/v); • 2*SDS solution: 20% Glycerol (v/v), 4% SDS (m/v), 10% β-mecaptoethanol (v/v), 0.01% Bromophenol blue (m/v); • TBST buffer: 4.84% Tris-base (m/v), 8% NaCl (m/v), 0.1% Tween-20 (v/v); • Primary antibody dilution: TBST buffer containing 5% BSA (v/v).

Compound	Degree of AMPK activation, p-ACC/ACC	Degree of AMPK activation, p-AMPKα/AMPK
COc1ccc(F)cc1C[n+]1ccn(CCCCCCCCCCCC(F)(F)C(F)(F)C(F)(F)C(F)(F)F)c1C(C)C.[Br-] [IB-26]	1.04	0.94
Cc1n(CCCCCCCCCCCC(F)(F)C(F)(F)C(F)(F)C(F)(F)C(F)(F)F)cc[n+]1Cc1c(F)cccc1Cl.[I-] [IB-39]	1.51	1.50
CC(C)c1n(CCCCCCCCCCCC(F)(F)C(F)(F)C(F)(F)C(F)(F)F)cc[n+]1Cc1c(Cl)cccc1Cl.[Cl-] [IB-24]	1.60	0.64
COc1ccc(F)cc1C[n+]1ccn(CCCCCCCCCCCC(F)(F)C(F)(F)C(F)(F)C(F)(F)F)c1C.[I-] [IB-23]	1.50	0.49
CC(C)c1n(CCCCCCCCCCCC(F)(F)C(F)(F)C(F)(F)F)cc[n+]1Cc1c(Cl)cccc1Cl.[Cl-] [IB-7]	0.87	1.93
COc1ccc(F)cc1C[n+]1ccn(CCCCCCCCCCCC(F)(F)C(F)(F)C(F)(F)C(F)(F)C(F)(F)F)c1C1CC1.[Br-] [IB-46]	1.73	0.57
COc1ccc(F)cc1C[n+]1ccn(CCCCCCCCCCCC(F)(F)C(F)(F)C(F)(F)F)c1C(C)C.[Br-] [IB-9]	0.27	1.07
Cc1n(CCCCCCCCCCCC(F)(F)C(F)(F)C(F)(F)C(F)(F)C(F)(F)F)cc[n+]1Cc1c(Cl)cccc1Cl [IB-60]	1.01	0.94
Cc1n(CCCCCCCCCCCC(F)(F)C(F)(F)C(F)(F)C(F)(F)F)cc[n+]1Cc1c(Cl)cccc1Cl.[I-] [IB-21]	1.73	0.35
CC(C)c1n(CCCCCCCCCCCC(F)(F)C(F)(F)C(F)(F)F)cc[n+]1Cc1c(F)cccc1Cl.[Cl-] [IB-8]	0.90	1.23
Cc1n(CCCCCCCCCCCC(F)(F)C(F)(F)C(F)(F)C(F)(F)F)cc[n+]1Cc1c(F)cccc1Cl.[Cl-] [IB-17]	0.72	1.42
Cl.FC(F)(F)C(F)(F)C(F)(F)C(F)(F)CCCCCCCCCCCn1cc[n+](Cc2c(Cl)cccc2Cl)c1 [IB-13]	0.57	1.31
FC(F)(F)C(F)(F)C(F)(F)C(F)(F)CCCCCCCCCCCn1cc[n+](Cc2c(Cl)cccc2Cl)c1C1CC1.[Cl-] [IB-27]	1.06	0.95
Cl.FC(F)(F)C(F)(F)C(F)(F)CCCCCCCCCCCn1cc[n+](Cc2c(Cl)cccc2Cl)c1C1CC1 [IB-10]	0.35	1.94
Fc1cccc(Cl)c1C[n+]1ccn(CCCCCCCCCCCC(F)(F)C(F)(F)C(F)(F)F)c1.[Cl-] [IB-2]	0.82	1.45
Br.COc1ccc(F)cc1C[n+]1ccn(CCCCCCCCCCCC(F)(F)C(F)(F)C(F)(F)C(F)(F)C(F)(F)C(F)(F)F)c1C(C)C [IB-55]	1.98	0.87
Cl.FC(F)(F)C(F)(F)C(F)(F)C(F)(F)C(F)(F)C(F)(F)CCCCCCCCCCCn1cc[n+](Cc2c(Cl)cccc2Cl)c1C1CC1 [IB-56]	0.99	0.85
Cl.Fc1cccc(Cl)c1C[n+]1ccn(CCCCCCCCCCCC(F)(F)C(F)(F)C(F)(F)C(F)(F)F)c1 [IB-14]	0.50	1.57

Compound	Degree of AMPK activation, p-ACC/ACC	Degree of AMPK activation, p-AMPKα/AMPK
Cc1n(CCCCCCCCCCCC(F)(F)C(F)(F)C(F)(F)C(F)(F)C(F)(F)F)cc[n+]1Cc1c(Cl)cccc1Cl [IB-59]	1.04	0.98
CC(C)c1n(CCCCCCCCCCCC(F)(F)C(F)(F)C(F)(F)C(F)(F)F)cc[n+]1Cc1c(F)cccc1Cl.[Cl-] [IB-25]	1.10	0.58
Br.Cc1n(CCCCCCCCCCCCCCCCF)cc[n+]1Cc1c(Cl)cccc1Cl [IA-2]	0.73	1.00
CC(C)c1n(CCCCCCCCCCCC(F)(F)C(F)(F)C(F)(F)C(F)(F)C(F)(F)F)cc[n+]1Cc1c(F)cccc1Cl.[Cl-] [IB-42]	1.50	1.03
Fc1cccc(Cl)c1C[n+]1ccn(CCCCCCCCCCCC(F)(F)C(F)(F)C(F)(F)C(F)(F)C(F)(F)F)c1C1CC1.[Cl-] [IB-45]	2.22	0.54
Cc1n(CCCCCCCCCCCCCCCCF)cc[n+]1Cc1c(Cl)cccc1Cl.[I-] [IA-3]	0.83	0.69
Cc1n(CCCCCCCCCCCC(F)(F)C(F)(F)C(F)(F)C(F)(F)C(F)(F)F)cc[n+]1Cc1c(Cl)cccc1Cl.[Br-] [IB-35]	1.15	1.02
Cc1n(CCCCCCCCCCCC(F)(F)C(F)(F)C(F)(F)F)cc[n+]1Cc1c(F)cccc1Cl.[Cl-] [IB-5]	0.70	1.85
COc1ccc(F)cc1C[n+]1ccn(CCCCCCCCCCCC(F)(F)C(F)(F)C(F)(F)F)c1.[Br-] [IB-3]	0.64	1.70
FC(F)(F)C(F)(F)C(F)(F)CCCCCCCCCCCn1cc[n+](Cc2c(Cl)cccc2Cl)c1.[Cl-] [IB-1]	0.71	0.99
Br.COc1ccc(F)cc1C[n+]1ccn(CCCCCCCCCCCC(F)(F)C(F)(F)C(F)(F)F)c1C1CC1 [IB-12]	0.50	1.18
COc1ccc(F)cc1C[n+]1ccn(CCCCCCCCCCCC(F)(F)C(F)(F)C(F)(F)C(F)(F)F)c1C.[Br-] [IB-20]	0.82	1.22
Cc1n(CCCCCCCCCCCC(F)(F)C(F)(F)C(F)(F)C(F)(F)F)cc[n+]1Cc1c(F)cccc1Cl.[I-] [IB-22]	1.08	0.44
COc1ccc(F)cc1C[n+]1ccn(CCCCCCCCCCCC(F)(F)C(F)(F)C(F)(F)C(F)(F)C(F)(F)C(F)(F)F)c1C.[Br-] [IB-52]	0.98	0.83
CC(C)c1n(CCCCCCCCCCCC(F)(F)C(F)(F)C(F)(F)C(F)(F)C(F)(F)C(F)(F)F)cc[n+]1Cc1c(Cl)cccc1Cl.Cl [IB-53]	1.23	0.76
COc1ccc(F)cc1C[n+]1ccn(CCCCCCCCCCCC(F)(F)C(F)(F)C(F)(F)C(F)(F)F)c1C1CC1.[Br-] [IB-29]	0.81	0.76
COc1ccc(F)cc1C[n+]1ccn(CCCCCCCCCCCC(F)(F)C(F)(F)C(F)(F)C(F)(F)C(F)(F)F)c1C.[I-] [IB-40]	1.65	1.06
Fc1cccc(Cl)c1C[n+]1ccn(CCCCCCCCCCCC(F)(F)C(F)(F)C(F)(F)F)c1C1CC1.[Cl-] [IB-11]	0.41	1.11
